The text below walks through data of patent US5356921A, “Imidazolylphenol compounds, pharmaceutical compositions containing them, and processes for preparing such compounds and compositions” (Gruenenthal GmbH, priority 1992, dated 1994).

Structures are written as SMILES.

The target in one test is T1, 5-lipoxygenase (Rattus norvegicus, UniProt P12527).
T1 construct: endogenous in cells; host or cells: RBL-1 cells (rat basophilic leukemia), intact
T1 sequence (P12527 1-673): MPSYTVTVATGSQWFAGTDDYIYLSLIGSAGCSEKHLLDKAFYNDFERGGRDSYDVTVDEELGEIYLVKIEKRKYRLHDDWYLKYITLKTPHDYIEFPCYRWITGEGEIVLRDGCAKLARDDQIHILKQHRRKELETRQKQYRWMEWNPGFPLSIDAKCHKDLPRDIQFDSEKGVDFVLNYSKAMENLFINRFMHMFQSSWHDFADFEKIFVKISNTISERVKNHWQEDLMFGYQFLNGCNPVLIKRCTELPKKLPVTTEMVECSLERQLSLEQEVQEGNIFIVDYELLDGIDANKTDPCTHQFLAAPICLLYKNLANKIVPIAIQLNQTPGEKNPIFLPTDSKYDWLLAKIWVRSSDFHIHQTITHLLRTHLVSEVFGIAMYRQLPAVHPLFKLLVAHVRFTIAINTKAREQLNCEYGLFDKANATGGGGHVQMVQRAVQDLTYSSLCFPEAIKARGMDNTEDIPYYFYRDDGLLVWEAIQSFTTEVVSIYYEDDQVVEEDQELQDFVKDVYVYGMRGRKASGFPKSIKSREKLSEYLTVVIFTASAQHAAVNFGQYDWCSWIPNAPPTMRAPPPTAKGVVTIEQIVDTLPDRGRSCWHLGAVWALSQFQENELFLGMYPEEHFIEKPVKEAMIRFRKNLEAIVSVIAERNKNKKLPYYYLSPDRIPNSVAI
The experiment in a line: Inhibition of cell-free 5-lipoxygenase from RBL-1-cells. As to conditions: 10,000×g supernatant of RBL cells; polarographic; arachidonic acid 75 μM. The class given is biochemical. Here is the method:
Cell-free 5-lipoxygenase was polarographically measured from 10,000×gsupernatant of homogenized rat basophilic leucemia cells [M. Haurand and L. Flohe in Biol. Chem. Hoppe-Seyler 369, 133-142 (1988)]. After preincubation of the 10,000×g supernatant with arachidonic acid (75 μM), ATP (adenosine triphosphate; 4 μM), reduced glutathione (4 mM), and either a compound according to the invention (0.1 to 100 μM) or a solvent (ethanol and/or dimethyl sulfoxide) at 35° C. for 5 minutes, the lipoxygenase reaction was initiated by addition of calcium chloride (3 mM) and recorded simultaneously.
The activity of 5-lipoxygenase was determined from the difference of the pO2 -decrease before and after addition of calcium chloride. The evaluation included the initial rate of the reaction after the lag-phase as well as the duration of the lag-phase. In a concentration range of from 5 to 10 μM the test substances induced lag-phases of 15 seconds.

Test [1] has as its system Leukotriene-Synthesis Induced by FMLP/Merthiolate of Human Polymorphonuclear Leukocytes. The experiment in a line: Inhibition of leukotriene-synthesis induced by FMLP/merthiolate of human polymorphonuclear leukocytes (reversibility). As to conditions: Leukocyte, human granulocytes, preincubated 5 minutes, centrifuged, resuspended, read-out: IC50-value of the reversible inhibitory action. The class given is cell-based. Here is the method:
(§1) Human granulocytes were isolated by dextran-sedimentation and a Percoll gradient method and suspended in HBSS (Hanks buffered salt solution) at1×10^7 cells/mi. The cells were incubated in presence of a compound according to the invention or a solvent (ethanol and/or dimethyl sulfoxide) at 37° C. for 2 minutes, then with merthiolate (sodium ethylmercurithiosalicylate; 40 μM) for 2 minutes, and thereafter with FMLP (formyl-methionyl-leucylphenylalanine; 10^-7 M) for 15 minutes. After solid phase extraction the metabolites of arachidonic acid 5-HETE, LTB4, 6-trans-LTB4 -isomers, 20-OH-LTB4 and 20-COOH-LTB4 were identified by RP-HPLC [M. Haurand and L. Flohe in Biochem. Pharmacol. 38, 2129-37 (1989)].
To examine the reversibility of the inhibitory action the cells were incubated with a compound according the invention or a solvent (ethanol and/or dimethyl sulfoxide) at 37° C. for 5 minutes, centrifuged at 300×g for 5 minutes and resuspended in 2 ml HBSS. Then the cells were incubated with merthiolate (40 μM) at 37° C. for 2 minutes and thereafter with FMLP (10^-7 M) for 15 minutes. The IC50 -value of the reversible inhibitory action was 2μmolar when the compound prepared according to Example 1 was used.

The test system of the next test is 12-lipoxygenase. Briefly: Inhibition of 12-HETE- and 5S,12S-DiHETE-synthesis induced by FMLP/merthiolate of human polymorphonuclear leukocytes and thrombocytes. The class given is cell-based. As to conditions: coincubated human granulocytes and thrombocytes. Here is the method: as §1
Coincubations of human granulocytes and thrombocytes were carried out and investigated according to the inhibition of leukotriene-synthesis induced by FMLP/merthiolate. 12-HETE and 5S,12S-dihydroxy-HETE (5S,12S-DiHETE) were additionally included in the evaluation.

A further test addresses T2, thromboxane synthase (Homo sapiens, UniProt P24557).
T2 construct: human thrombocytes were isolated from platelet-rich plasma; endogenous in cells; host or cells: human thrombocytes (platelets), intact
T2 sequence (P24557 1-533): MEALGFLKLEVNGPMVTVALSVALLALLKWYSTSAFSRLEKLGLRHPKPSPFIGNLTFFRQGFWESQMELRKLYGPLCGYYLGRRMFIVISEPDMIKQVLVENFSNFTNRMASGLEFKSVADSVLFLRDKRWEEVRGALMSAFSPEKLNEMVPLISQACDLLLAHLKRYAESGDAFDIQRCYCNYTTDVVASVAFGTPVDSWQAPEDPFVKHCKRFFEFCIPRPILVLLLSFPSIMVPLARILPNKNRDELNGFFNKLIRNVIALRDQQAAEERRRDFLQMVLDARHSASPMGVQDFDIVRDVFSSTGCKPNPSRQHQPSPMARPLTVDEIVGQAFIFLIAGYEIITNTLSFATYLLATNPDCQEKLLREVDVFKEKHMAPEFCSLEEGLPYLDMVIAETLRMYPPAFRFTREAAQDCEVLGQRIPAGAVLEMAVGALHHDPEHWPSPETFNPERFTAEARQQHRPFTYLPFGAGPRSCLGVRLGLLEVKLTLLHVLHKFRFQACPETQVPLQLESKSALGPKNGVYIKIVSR
Briefly: Inhibition of thromboxane synthase (human thrombocytes). It counts as cell-based. As to conditions: for IC50: human thrombocytes, arachidonic acid 3.5 μM, read-out: IC50-Value, inhibition of thromboxane synthase (TXB2 formation); for inhibitory action on thromboxane synthase: in words. Here is the method: After addition of prostacyclin, human thrombocytes were isolated from platelet-rich plasma and suspended in Tyrode-Hepes buffer of pH 7.4 at 2×10^8 cells/ml. One ml aliquots of cells were incubated either with a compound according to the invention (0.1 to 100 μM) or a solvent (ethanol and/or dimethyl sulfoxide) at 37° C. for 3 minutes and thereafter with radioactively labelled arachidonic acid (3.5 μM) for 5 minutes. The reaction was stopped and the metabolites of arachidonic acid were extracted by adding methanol, chloroform and formic acid. After evaporation of the chloroform-containing layer to dryness under nitrogen, the residue obtained was resuspended in 50 μl chloroform and analyzed by thin layer chromatography. The distribution of the radioactivity of the different metabolites of arachidonic acid was measured using a TLC linear analyzer.

For `NC(=O)N(O)Cc1ccc(Oc2ccc(-n3ccnc3)cc2)cc1` [Example 1, N-hydroxy-N-[4-[4-(1H-imidazol-1-yl)phenoxy]phenylmethyl]urea], the results for the IC50 (at 5-lipoxygenase; in test [1]; on thromboxane synthase) were 7 µM, 2000 nM and 2800 nM, respectively. The “inhibitory action on 12-lipoxygenase” value with 12-lipoxygenase is “did not exert an inhibitory action on 12-lipoxygenase”. Moreover, the “inhibitory action on thromboxane synthase” value on thromboxane synthase is “same inhibitory potency as the hydrochloride of the imidazolylethoxybenzoic acid UK 37 248”.

As for `CC(=O)N(O)Cc1ccc(Oc2ccc(-n3ccnc3)cc2)cc1` [Example 3, N-hydroxy-N-[4-[4-(1H-imidazol-1-yl)phenoxy]phenylmethyl]acetamide], the concentration for half-maximal inhibition (IC50) (commonly the concentration that inhibits the measured activity by half) on 5-lipoxygenase turned out to be 3 µM. Moreover, on thromboxane synthase, the IC50 is 2900 nM and the “inhibitory action on thromboxane synthase” value is listed as “same inhibitory potency as the hydrochloride of the imidazolylethoxybenzoic acid UK 37 248”.
